ChEMBL document CHEMBL2016501, “Design, synthesis, and biological activity of novel 1,4-disubstituted piperidine/piperazine derivatives as CCR5 antagonist-based HIV-1 entry inhibitors” (Bioorg Med Chem Lett, 2012)

Legend:
[1] = test system: Human immunodeficiency virus 1; experiment: Antiviral against R5 tropic HIV1 Bal infected in human CEMx174 5.25M7 cells assessed as inhibition of viral replication; assay type: functional, organism-based; details: Human immunodeficiency virus 1, Bal
[2] = Cytotoxicity against human CEMx174 5.25M7; details: CEMx174 5.25M7 cells
[3] = Selectivity ratio of CC50 for human CEMx174 5.25M7 cells to IC50 for HIV1 Bal infected in CEMx174 5.25M7 cells; assay type: ADME, cell-based; details: read-out: Ratio CC50/IC50
[4] = Oral bioavailability in Sprague-Dawley rat at 5 mg/kg; assay type: ADME, organism-based; details: in vivo
hERG = experiment: Selectivity ratio of IC50 for human Erg to IC50 for HIV1 Bal infected in human CEMx174 5.25 cells; assay type: ADME, cell-based; details: HIV1 Bal infected CEMx174 5.25 cells, read-out: Ratio IC50
[5] = Terminal half life in Sprague-Dawley rat at 5 mg/kg, po; assay type: ADME, organism-based; parameters: dose 5 mg/kg, route oral; details: in vivo, read-out: beta t1/2 (converted)
[6] = biological target: Voltage-gated inwardly rectifying potassium channel KCNH2 (Homo sapiens, UniProt Q12809); experiment: Inhibition of human Erg expressed in HEK293 cells by whole cell patch clamp assay; assay type: cell-based
[7] = AUC (0 to 12 hrs) in Sprague-Dawley rat at 1 mg/kg, iv; assay type: ADME, organism-based; parameters: time < 12 hr, dose 1 mg/kg, route intravenous; details: plasma
[8] = Solubility of the compound in 10 mM phosphate sodium buffer at pH 7.4 at 25 degC; assay type: physicochemical
[9] = Terminal half life in Sprague-Dawley rat at 1 mg/kg, iv; assay type: ADME, organism-based; parameters: dose 1 mg/kg, route intravenous; details: in vivo, read-out: beta t1/2 (converted)
[10] = AUC (0 to 12 hrs) in Sprague-Dawley rat at 5 mg/kg, po; assay type: ADME, organism-based; parameters: time < 12 hr, dose 5 mg/kg, route oral; details: plasma
[11] = test system: Human immunodeficiency virus 1; experiment: Antiviral activity against HIV1; assay type: functional, organism-based

Sequence of Voltage-gated inwardly rectifying potassium channel KCNH2 (Q12809 whole entry): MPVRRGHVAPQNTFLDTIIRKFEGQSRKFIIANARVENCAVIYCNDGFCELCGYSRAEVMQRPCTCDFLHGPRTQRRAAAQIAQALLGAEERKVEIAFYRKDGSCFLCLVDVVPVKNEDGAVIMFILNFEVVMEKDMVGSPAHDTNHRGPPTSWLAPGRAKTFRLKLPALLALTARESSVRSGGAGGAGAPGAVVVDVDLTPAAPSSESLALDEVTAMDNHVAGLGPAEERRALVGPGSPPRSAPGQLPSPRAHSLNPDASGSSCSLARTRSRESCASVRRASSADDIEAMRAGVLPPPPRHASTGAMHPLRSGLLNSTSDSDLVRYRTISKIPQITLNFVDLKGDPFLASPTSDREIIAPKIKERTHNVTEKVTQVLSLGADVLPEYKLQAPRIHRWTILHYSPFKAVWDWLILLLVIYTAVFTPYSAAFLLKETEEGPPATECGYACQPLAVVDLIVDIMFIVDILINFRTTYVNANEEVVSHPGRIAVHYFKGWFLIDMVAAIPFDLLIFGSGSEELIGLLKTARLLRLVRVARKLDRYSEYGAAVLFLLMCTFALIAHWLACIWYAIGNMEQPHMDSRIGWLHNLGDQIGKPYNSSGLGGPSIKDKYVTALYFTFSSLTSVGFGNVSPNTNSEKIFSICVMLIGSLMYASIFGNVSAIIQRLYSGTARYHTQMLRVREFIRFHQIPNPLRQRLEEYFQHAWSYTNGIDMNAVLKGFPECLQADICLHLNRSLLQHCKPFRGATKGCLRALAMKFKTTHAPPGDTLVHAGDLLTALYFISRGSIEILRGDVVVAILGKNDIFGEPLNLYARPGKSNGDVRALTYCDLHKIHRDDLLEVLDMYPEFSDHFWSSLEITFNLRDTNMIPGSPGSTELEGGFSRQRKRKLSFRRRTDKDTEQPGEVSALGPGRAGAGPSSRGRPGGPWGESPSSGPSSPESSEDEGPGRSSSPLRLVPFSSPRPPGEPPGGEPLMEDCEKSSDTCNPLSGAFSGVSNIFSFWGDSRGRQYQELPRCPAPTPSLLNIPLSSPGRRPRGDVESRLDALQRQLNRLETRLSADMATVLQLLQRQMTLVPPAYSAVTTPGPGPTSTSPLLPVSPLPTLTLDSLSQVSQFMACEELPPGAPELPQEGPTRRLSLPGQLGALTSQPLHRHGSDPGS

Compound	IC50 [1]	CC50 [2]	selectivity ratio [3]	other results
CCN(Cc1ccccc1)C(=O)C1CCN(CCCN(C(=O)C2CCN(C(C)=O)CC2)c2ccc(C)c(Cl)c2)CC1	59.9 nM	83.9 µM	1400	–
CC(=O)N1CCC(C(=O)N(CCCN2CCC(CNC(=O)c3cnccn3)CC2)c2ccc(C)c(Cl)c2)CC1	20.3 nM	> 52.4 µM	> 2580	–
CC(=O)N1CCC(C(=O)N(CCCN2CCC(CNC(=O)c3ccsc3)CC2)c2ccc(C)c(Cl)c2)CC1	87.5 nM	> 51.9 µM	> 593	–
CC(=O)N1CCC(C(=O)N(CCCN2CCC(CNc3cc(C)ccn3)CC2)c2ccc(C)c(Cl)c2)CC1	1830 nM	17.9 µM	10	–
CC(=O)N1CCC(C(=O)N(CCCN2CCC(CNc3ncccn3)CC2)c2ccc(C)c(Cl)c2)CC1	10.2 nM	> 55.1 µM	> 5330	–
CC(=O)N1CCC(C(=O)N(CCCN2CCC(Oc3ccccc3)CC2)c2ccc(C)c(Cl)c2)CC1	52.3 nM	> 56.6 µM	> 1080	–
CC(=O)N1CCC(C(=O)N(CCCN2CCN(Cc3ccccc3)CC2)c2ccc(C)c(Cl)c2)CC1	14.9 nM	101 µM	6800	–
CC(=O)N1CCC(C(=O)N(CCCN2CCN(C(=O)c3ccccc3)CC2)c2ccc(C)c(Cl)c2)CC1	147 nM	97.8 µM	663	–
CC(=O)N1CCC(C(=O)N(CCCN2CCN(Cc3cnc(Cl)s3)CC2)c2ccc(C)c(Cl)c2)CC1	11.6 nM	> 52.4 µM	> 4510	–
CC(=O)N1CCC(C(=O)N(CCCN2CCN(Cc3cccnc3)CC2)c2ccc(C)c(Cl)c2)CC1	32.7 nM	> 56.7 µM	> 1740	–
CC(=O)N1CCC(C(=O)N(CCCN2CCN(c3ccccn3)CC2)c2ccc(C)c(Cl)c2)CC1	56.3 nM	> 58.3 µM	> 1040	–
CC(=O)N1CCC(C(=O)N(CCCN2CC3CN(C(=O)c4c(C)ncnc4C)CC3C2)c2ccc(C)c(Cl)c2)CC1 (configuration not stated)	–	–	–	EC50 [11]: 2.7 nM

Now from value to molecule, other results behind:

IC50 [1]	Compound	CC50 [2]	selectivity ratio [3]	other results
6.56 nM	CC(=O)N1CCC(C(=O)N(CCCN2CCN(Cc3ccc(Cl)cc3)CC2)c2ccc(C)c(Cl)c2)CC1	37.6 µM	5730	–
9.07 nM	CC(=O)N1CCC(C(=O)N(CCCN2CCN(Cc3ccncc3)CC2)c2ccc(C)c(Cl)c2)CC1	> 56.7 µM	> 6150	–
3.63 nM	CC(=O)N1CCC(C(=O)N(CCCN2CCN(Cc3ccc(Cl)nc3)CC2)c2ccc(C)c(Cl)c2)CC1	> 53.1 µM	> 14500	–
6.17 nM	CC(=O)N1CCC(C(=O)N(CCCN2CCN(Cc3ccc(F)cc3)CC2)c2ccc(C)c(Cl)c2)CC1.Cl	> 100 µM	> 16200	bioavailability [4]: 56%; selectivity ratio (hERG): 295; half-life [5]: 45.6 min; IC50 [6]: 1820 nM; AUC(0-t) at 12 h [7]: 209 ng·h/mL; solubility [8]: 25000 µg/mL; half-life [9]: 35.4 min; AUC(0-t) at 12 h [10]: 587 ng·h/mL
3.99 nM	CC(=O)N1CCC(C(=O)N(CCCN2CCN(Cc3ccc(S(C)(=O)=O)cc3)CC2)c2ccc(C)c(Cl)c2)CC1	> 49.3 µM	> 12100	–
9.01 nM	CC(=O)N1CCC(C(=O)N(CCCN2CCN(Cc3ccc(C#N)cc3)CC2)c2ccc(C)c(Cl)c2)CC1	> 100 µM	> 11100	–
1.85 nM	CC(=O)N1CCC(C(=O)N(CCCN2CCN(Cc3ccc(C(F)(F)F)cc3)CC2)c2ccc(C)c(Cl)c2)CC1	30.5 µM	16500	–
2.48 nM	CC(=O)N1CCC(C(=O)N(CCCN2CCC(Cc3ccc(C(N)=O)cc3)CC2)c2ccc(C)c(Cl)c2)CC1.Cl	> 100 µM	> 40300	bioavailability [4]: 1.4%; half-life [5]: 255 min; AUC(0-t) at 12 h [7]: 328 ng·h/mL; solubility [8]: 2000 µg/mL; half-life [9]: 135 min; AUC(0-t) at 12 h [10]: 22.7 ng·h/mL
5.23 nM	CCN(C(=O)Cc1ccccc1)C1CCN(CCCN(C(=O)C2CCN(C(C)=O)CC2)c2ccc(C)c(Cl)c2)CC1.Cl	36.2 µM	6920	EC50 [11]: 2.5 nM; solubility [8]: < 2000 µg/mL
